Test results: the supplement of paper PMC13380429

Legend:
Settings in all cases: 72 h
Caco-2 [1] = assay: cell viability relative to DMSO; higher = less toxic
Calu-3 [2] = assay: as above
HepG2 [3] = assay: as above
U2OS [4] = assay: as above
Vero E6 [5] = assay: as above
Caco-2 [6] = assay: relative viability EC50 (midpoint between 100% and the lowest measured viability); higher = less toxic
Calu-3 [7] = assay: as above
HepG2 [8] = assay: as above
U2OS [9] = assay: as above
Vero E6 [10] = assay: as above
Caco-2 [11] = assay: drug sensitivity score (DSS) for viability; higher = more toxic; extreme values may be limits of the assay
Calu-3 [12] = assay: as above
HepG2 [13] = assay: as above
U2OS [14] = assay: as above
Vero E6 [15] = assay: as above

Row | Compound | cell viability (Caco-2 [1]; 1 nM) [%] | cell viability (Caco-2 [1]; 10 nM) [%] | cell viability (Caco-2 [1]; 100 nM) [%] | cell viability (Caco-2 [1]; 1000 nM) [%] | cell viability (Caco-2 [1]; 10000 nM) [%] | cell viability (Calu-3 [2]; 1 nM) [%] | cell viability (Calu-3 [2]; 10 nM) [%] | cell viability (Calu-3 [2]; 100 nM) [%] | cell viability (Calu-3 [2]; 1000 nM) [%] | cell viability (Calu-3 [2]; 10000 nM) [%] | cell viability (HepG2 [3]; 1 nM) [%] | cell viability (HepG2 [3]; 10 nM) [%] | cell viability (HepG2 [3]; 100 nM) [%] | cell viability (HepG2 [3]; 1000 nM) [%] | cell viability (HepG2 [3]; 10000 nM) [%] | cell viability (U2OS [4]; 1 nM) [%] | cell viability (U2OS [4]; 10 nM) [%] | cell viability (U2OS [4]; 100 nM) [%] | cell viability (U2OS [4]; 1000 nM) [%] | cell viability (U2OS [4]; 10000 nM) [%] | cell viability (Vero E6 [5]; 1 nM) [%] | cell viability (Vero E6 [5]; 10 nM) [%] | cell viability (Vero E6 [5]; 100 nM) [%] | cell viability (Vero E6 [5]; 1000 nM) [%] | cell viability (Vero E6 [5]; 10000 nM) [%] | relative viability EC50 (Caco-2 [6]) [µM] | relative viability EC50 (Calu-3 [7]) [µM] | relative viability EC50 (HepG2 [8]) [µM] | relative viability EC50 (U2OS [9]) [µM] | relative viability EC50 (Vero E6 [10]) [µM] | drug sensitivity score (Caco-2 [11]) | drug sensitivity score (Calu-3 [12]) | drug sensitivity score (HepG2 [13]) | drug sensitivity score (U2OS [14]) | drug sensitivity score (Vero E6 [15])
1 | O=C1C(O)=C(O)C(=O)C(O)=C1O [tetroquinone] | 103 | 99.6 | 96.9 | 104 | 97.6 | 97.3 | 98.2 | 98.1 | 87.1 | 93.3 | 97.9 | 100 | 101 | 106 | 91.7 | 99.9 | 99.5 | 97.8 | 99.8 | 104 | 98.3 | 100 | 97.6 | 96.7 | 95.1 | > 10 | > 10 | > 10 | > 10 | > 10 | 0 | 0 | 0 | 0 | 0
2 | CSc1ccccc1OCC(O)CNC(C)C (stereo not given) [tiprenolol] | 108 | 102 | 93.6 | 83 | 113 | 104 | 106 | 100 | 97.3 | 103 | 98.6 | 92.6 | 102 | 99.9 | 98.5 | 97.9 | 96.2 | 106 | 101 | 99.3 | 100 | 98.5 | 98.6 | 91.8 | 86.7 | > 10 | > 10 | > 10 | > 10 | > 10 | 0 | 0 | 0 | 0 | 0.3
3 | C#Cc1cnc2nc(O)n(C(CC)CC)c2n1 [tirasemtiv] | 90.7 | 92.8 | 103 | 107 | 103 | 95.8 | 98.7 | 103 | 95.7 | 106 | 102 | 113 | 99.4 | 115 | 98.5 | 103 | 100 | 101 | 98.6 | 98.5 | 94.8 | 101 | 93.4 | 96.9 | 106 | > 10 | > 10 | > 10 | > 10 | > 10 | 0 | 0 | 0 | 0 | 0
